Target: human BACE-1 (Homo sapiens, UniProt P56817)
Test: In Vitro BACE Assay (CEREP, fluorogenic substrate)
Assay type: biochemical
Conditions: recombinant enzyme; for inhibition at 10 µM: 10 μM test compound, pH 4.5; for IC50: pH 4.5, 60 min at 37° C.
Experimental: This assay was run by CEREP (Catalog Ref. 761-B, Referred to SOP No. 1C131; ERMOLIEFF, J., LOY, J. A., KOELSCH, G. and TANG, J., Proteolytic activation of recombinant pro-memapsin 2 (pro-BACE) studied with new fluorogenic substrates, Biochemistry, (2000) Vol. 39, p. 12450).
More specifically the assay, run at 50 μL in a 96 well plate, evaluated the effect of test compound on the activity of the human BACE-1 quantified by measuring the formation of Mca-S-E-V-N-L-NH2 from Mca-S-E-V-N-L-D-A-E-F-R-K(Dnp)-R-R—NH2, using a recombinant enzyme.
The test compound, reference compound or water (control) was added to a buffer containing 0.09 M sodium acetate (pH 4.5) and 0.25 μg BACE-1. Compound interference with the fluorimetric detection method due to autofluorescence was then checked by measurements at the wavelengths defined to evaluate the enzyme activity. Thereafter, the reaction was initiated by adding 7.5 μM of the substrate Mca-S-E-V-N-L-D-A-E-F-R-K(Dnp)-R—R—NH2 and the mixture was incubated for 60 min at 37° C. For control basal measurement, the substrate was omitted from the reaction mixture. Immediately after the incubation, the fluorescence intensity emitted by the reaction product Mca-S-E-V-N-L-NH2 was measured at λex=320 nm and λem=405 nm using a microplate reader (Ultra, Tecan). The standard inhibitory reference compound was OM99-2, which was tested in each experiment at several concentrations to obtain an inhibition curve from which its IC50 value was calculated.

Chain of human BACE-1 (P56817 46-501): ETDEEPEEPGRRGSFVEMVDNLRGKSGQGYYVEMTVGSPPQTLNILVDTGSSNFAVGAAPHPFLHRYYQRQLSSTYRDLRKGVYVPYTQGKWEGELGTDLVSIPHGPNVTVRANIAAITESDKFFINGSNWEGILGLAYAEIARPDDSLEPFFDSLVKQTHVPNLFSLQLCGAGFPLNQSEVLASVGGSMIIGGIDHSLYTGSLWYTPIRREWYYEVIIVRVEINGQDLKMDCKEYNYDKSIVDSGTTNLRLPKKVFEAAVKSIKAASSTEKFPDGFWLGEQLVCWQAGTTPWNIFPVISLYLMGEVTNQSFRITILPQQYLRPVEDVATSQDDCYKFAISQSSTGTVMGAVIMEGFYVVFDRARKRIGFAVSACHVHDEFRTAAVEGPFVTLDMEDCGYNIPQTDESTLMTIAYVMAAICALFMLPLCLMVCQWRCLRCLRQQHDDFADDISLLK

| SMILES | inhibition at 10 µM | IC50 |
| --- | --- | --- |
| COc1ccc(CNCc2cccc(Sc3ccc4nc(N)c(CC5CCOCC5)cc4c3)c2)c(OC)c1 [Compound 7] | 90% | 0.38 µM |
| Nc1nc2ccc(Sc3cccc(CNCc4ccc(C(F)(F)F)cc4)c3)cc2cc1CC1CCOCC1 [Compound 12] | 90% | 0.46 µM |
| Nc1nc2ccc(Sc3cccc(CNCc4ccccn4)c3)cc2cc1CC1CCOCC1 [Compound 5] | 93% | 0.8 µM |
| Cc1cc(C)c(CNCc2cccc(Oc3ccc4nc(N)c(CC5CCOCC5)cc4c3)c2)c(C)c1 [Compound (II-a), 3-(Tetrahydro-pyran-4-ylmethyl)-6-{3-[(2,4,6-trimethylbenzylamino)-methyl]-phenoxy}-quinolin-2-ylamine] | 98% | 1.2 µM |
| Nc1nc2ccc(Sc3cccc(CCNCc4ccccn4)c3)cc2cc1CC1CCOCC1 [Compound 21] | 91% | 0.63 µM |
| Cc1ccc(CNCc2cccc(Sc3ccc4nc(N)c(CC5CCOCC5)cc4c3)c2)c(C)c1 [Compound 6] | 98% | 0.45 µM |
| Nc1nc2ccc(Sc3cccc(CNCc4cc(F)ccc4F)c3)cc2cc1CC1CCOCC1 [Compound 8] | 95% | 0.21 µM |
| Cc1cc(C)c(NCc2cccc(Sc3ccc4nc(N)c(CC5CCOCC5)cc4c3)c2)c(C)c1 [Compound 2] | 94% | 0.92 µM |

Second part, the compound after the results:

| inhibition at 10 µM | IC50 | SMILES |
| --- | --- | --- |
| 97% | 0.4 µM | Nc1nc2ccc(Sc3cccc(CNCc4c(F)cccc4F)c3)cc2cc1CC1CCOCC1 [Compound 4] |
| 95% | 0.3 µM | CCOc1ccccc1CNCc1cccc(Sc2ccc3nc(N)c(CC4CCOCC4)cc3c2)c1 [Compound 10] |
| 74% | > 10 µM | Cc1cc(C)c(CNCc2cccc(Oc3ccc4nc(N)c(CCC5CCOCC5)cc4c3)c2)c(C)c1 [Compound (II-b), 3-[2-(Tetrahydro-pyran-4-yl)-ethyl]-6-{3-[(2,4,6-trimethylbenzylamino)-methyl]-phenoxy}-quinolin-2-ylamine] |
| 63% | 2.8 µM | CCCC(NCc1cccc(Sc2ccc3nc(N)c(CC4CCOCC4)cc3c2)c1)C(=O)O (stereo not drawn) [Compound 13] |
| 95% | 0.26 µM | CCOc1ccccc1CNCc1cccc(Sc2cc3cc(CC4CCOCC4)c(N)nc3cc2F)c1 [Compound 18, 6-{3-[(2-Ethoxy-benzylamino)-methyl]-phenylsulfanyl}-7-fluoro-3-(tetrahydro-pyran-4-ylmethyl)-quinolin-2-ylamine] |
| 98% | 0.24 µM | Nc1nc2ccc(Sc3cccc(CNCc4ccc(Cl)cc4Cl)c3)cc2cc1CC1CCOCC1 [Compound 9] |
| 96% | 0.26 µM | Cc1cc(C)c(CNCc2cccc(Sc3ccc4nc(N)c(CC5CCOCC5)cc4c3)c2)c(C)c1 [Compound 1, 3-(Tetrahydro-pyran-4-ylmethyl)-6-{3-[(2,4,6-trimethyl-benzylamino)-methyl]-phenylsulfanyl}-quinolin-2-ylamine] |
| 94% | 0.33 µM | Nc1nc2ccc(Sc3cccc(CSc4cccc(CC(=O)O)c4)c3)cc2cc1CC1CCOCC1 [Compound 17] |
| 93% | 1.2 µM | Cc1ccc(C)c(COCc2cccc(Sc3ccc4nc(N)c(CC5CCOCC5)cc4c3)c2)c1 [Compound 16] |
| 98% | 0.14 µM | CCOc1ccccc1CNCCc1cccc(Sc2ccc3nc(N)c(CC4CCOCC4)cc3c2)c1 [Compound 20] |

Source: patent publication US8076358B2, “6-substituted-thio-2-amino-quinoline derivatives useful as inhibitors of β-secretase (BACE)” (Janssen Pharmaceutica NV, priority 2008, dated 2011)
